We go through 19 compounds from patent US11512053B2, “Arginine methyltransferase inhibitors and uses thereof” (priority 2013, dated 2022).

Structures are written as SMILES. pIC50: −log10 of the molar value. Like-named read-outs stand apart in the source and are kept apart here.

Experiment [1] concerns mono-methyl arginine in RKO cells. Nature of the experiment: RKO Methylation Assay, In Cell Western (ICW) for detection of mono-methyl arginine and DNA content. The class given is cell-based. To be noted: Homo sapiens, RKO, 72 h, RKO cells, read-out: In Cell Western EC30. The method, boiled down: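 RKO cells were treated with compound for 72 hours at 37 °C, methanol-fixed and stained overnight at 4 °C with anti-mono-methyl arginine (1:200), with DRAQ5 for DNA. Odyssey 800/700 nm intensity ratio was normalized to DMSO and 20 μM reference-compound controls. EC30 from triplicate nine-point curves.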

For experiment [2], the target named is full-length human PRMT6 (Flag- and His-tagged) (Homo sapiens, UniProt Q96LA8). The experiment can be described thus: PRMT6 Biochemical Assay (3H-SAM Flashplate, peptide substrate). Particulars: read-out: Biochemical IC50 PRMT6. The method, boiled down: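 Radiometric methyltransferase readout: tritium transfer onto a biotin-tagged histone H4 36-50 peptide bearing monomethyl K44 (75 nM), captured on streptavidin Flashplates after stopping with 400 uM unlabeled SAM. Enzyme is baculovirus-expressed Flag-PRMT6-His at 1 nM, given 30 min with compound at room temperature before adding 200 nM 3H-SAM and 250 nM cold SAM (pH 7.6 Bicine, 2% DMSO). Percent inhibition relative to max/min (1 mM SAH) controls, curve-fit to IC50.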
Chain of full-length human PRMT6 (Flag- and His-tagged) (Q96LA8 with tags, fused parts or gaps): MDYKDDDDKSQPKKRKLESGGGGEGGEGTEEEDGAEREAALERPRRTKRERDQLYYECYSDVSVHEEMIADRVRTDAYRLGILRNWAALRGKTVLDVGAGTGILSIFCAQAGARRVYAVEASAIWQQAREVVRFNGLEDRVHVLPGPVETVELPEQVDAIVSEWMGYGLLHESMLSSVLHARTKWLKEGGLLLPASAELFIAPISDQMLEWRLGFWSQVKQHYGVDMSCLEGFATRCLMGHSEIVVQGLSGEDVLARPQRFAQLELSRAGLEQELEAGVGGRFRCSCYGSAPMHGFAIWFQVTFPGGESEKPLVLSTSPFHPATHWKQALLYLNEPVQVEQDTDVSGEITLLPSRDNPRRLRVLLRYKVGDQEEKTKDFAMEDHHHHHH

Setting [3] is: 72 hours compound incubation, mono-methyl arginine signal normalised to DNA content (DRAQ5), percent activation vs 20 μM reference compound.
Where [4] appears, read: 72 hours incubation, mono-methyl arginine signal normalised to DNA content, single experiment or average of multiple experiments.
Where [5] appears, read: single experiment or average of multiple experiments.

As for `CNCCN(C)Cc1c[nH]nc1C1CCC2(CC1)CC(=O)N(CCC(C)C)C2` (stereo not shown) [Compound 165], the EC30 was < 3 µM in experiment [1] (setting [3]) and 0.51 µM in experiment [1] (setting [4]). For the same compound, the figures for the pIC50 in experiment [2] and in experiment [2] (setting [5]) were 6.00 to 7.00 and 6.92, respectively.

Consider `CNCCN(C)Cc1c[nH]nc1[C@H]1CC[C@@H](COC)CC1` [Compound 166], for which the EC30 in experiment [1] (setting [3]) was < 3 µM; in experiment [1] (setting [4]), 0.083 µM. Moreover, the results for the pIC50 in experiment [2] and in experiment [2] (setting [5]) were > 7.00 and 7.31, respectively.

As for `CNCCN(C)Cc1c[nH]nc1[C@H]1CC[C@H](COC)CC1` [Compound 167], the values for the EC30 in experiment [1] (setting [3]) and in experiment [1] (setting [4]) were < 3 µM and 0.018 µM, respectively. In addition, the pIC50 is > 7.00 in experiment [2] and 7.50 in experiment [2] (setting [5]).

On to `CCOC1CC2(CCC(c3n[nH]cc3CN(C)CCNC)CC2)CC1OCC` (stereo not shown) [Compound 168], for which the EC30 in experiment [1] (setting [3]) was < 3 µM; in experiment [1] (setting [4]) it was 0.085 µM. The pIC50 in experiment [2] is > 7.00; in experiment [2] (setting [5]) it was 7.35.

On to `CNCCN(C)Cc1c[nH]nc1C1CCC(CC(C)C)CC1` (stereo not shown) [Compound 169], for which the 30% effect concentration (EC30) was < 3 µM in experiment [1] (setting [3]) and 0.016 µM in experiment [1] (setting [4]). Moreover, the pIC50 was > 7.00 in experiment [2] and 7.75 in experiment [2] (setting [5]).

As to `CNCCN(C)Cc1c[nH]nc1C1CCC2(CC1)C(=O)N(C)C(=O)N2C` (stereo not shown) [Compound 171], the EC30 is < 3 µM in experiment [1] (setting [3]) and 0.192 µM in experiment [1] (setting [4]). Moreover, the pIC50 in experiment [2] is > 7.00; in experiment [2] (setting [5]), 7.39.

Turning to `CNCCN(C)Cc1c[nH]nc1C1CCC2(CC1)CN(C)C(=O)N2C` (stereo not shown) [Compound 172], the 30% effect concentration (EC30) in experiment [1] (setting [3]) is 3.01 to 12 µM; in experiment [1] (setting [4]), 4.46 µM. In addition, the values for the pIC50 in experiment [2] and in experiment [2] (setting [5]) were > 7.00 and 7.34, respectively.

Turning to `CNCCN(C)Cc1c[nH]nc1C1=CCC(CCOC)(CCOC)CC1` [Compound 173], the EC30 in experiment [1] (setting [3]) is < 3 µM; in experiment [1] (setting [4]), 0.408 µM. Besides, the pIC50 was > 7.00 in experiment [2] and 7.05 in experiment [2] (setting [5]).

Turning to `CNCCN(C)Cc1c[nH]nc1C1CCC(CCOC)(CCOC)CC1` [Compound 174], the values for the EC30 in experiment [1] (setting [3]) and in experiment [1] (setting [4]) were < 3 µM and 0.085 µM, respectively. Besides, the pIC50 in experiment [2] was > 7.00; in experiment [2] (setting [5]) it was 7.07.

Regarding `CNCCN(C)Cc1c[nH]nc1C1CCC2(CC1)NC(=O)NC2=O` (stereo not shown) [Compound 175], the EC30 is > 12 µM in experiment [1] (setting [3]) and > 20 µM in experiment [1] (setting [4]). The values for the pIC50 in experiment [2] and in experiment [2] (setting [5]) were > 7.00 and 7.42, respectively.

With `CNCCN(C)Cc1c[nH]nc1C1CCC2(CCNC2=O)CC1` (stereo not shown) [Compound 176], the EC30 in experiment [1] (setting [3]) was < 3 µM; in experiment [1] (setting [4]) it was 2.14 µM. Besides, the pIC50 is > 7.00 in experiment [2] and 7.44 in experiment [2] (setting [5]).

Turning to `CNCCN(C)Cc1c[nH]nc1C1CCC2(CC1)OCCO2` [Compound 177], the values for the 30% effect concentration (EC30) in experiment [1] (setting [3]) and in experiment [1] (setting [4]) were < 3 µM and 0.571 µM, respectively. Further, the negative logarithm of the IC50 (pIC50) in experiment [2] was 6.00 to 7.00; in experiment [2] (setting [5]), 6.95.

Take `CNCCN(C)Cc1c[nH]nc1C1CCC2(CCOCC2)CC1` [Compound 178]: the figures for the EC30 in experiment [1] (setting [3]) and in experiment [1] (setting [4]) were < 3 µM and 0.076 µM, respectively. Also, the pIC50 in experiment [2] was > 7.00; in experiment [2] (setting [5]), 7.80.

Consider `CNCCN(C)Cc1c[nH]nc1C1CC(C)OC(C)C1` (stereo not shown) [Compound 179], for which the values for the EC30 in experiment [1] (setting [3]) and in experiment [1] (setting [4]) were < 3 µM and 0.476 µM, respectively. Moreover, the pIC50 was > 7.00 in experiment [2] and 7.20 in experiment [2] (setting [5]).

For `CNCCN(C)Cc1c[nH]nc1[C@H]1CC[C@H](C(C)C)CC1` [Compound 180], the EC30 in experiment [1] (setting [3]) is < 3 µM; in experiment [1] (setting [4]), 0.019 µM. Moreover, the pIC50 in experiment [2] is > 7.00; in experiment [2] (setting [5]), 7.83.

As for `CNCCN(C)Cc1c[nH]nc1[C@H]1CC[C@@H](C(C)C)CC1` [Compound 181], the values for the EC30 in experiment [1] (setting [3]) and in experiment [1] (setting [4]) were < 3 µM and 0.107 µM, respectively. Moreover, the negative logarithm of the IC50 (pIC50) in experiment [2] was > 7.00; in experiment [2] (setting [5]) it was 7.55.

Turning to `CNCCN(C)Cc1c[nH]nc1C1CCC(O)C2(CCCC2)C1` (stereo not shown) [Compound 182, 9-[4-({methyl[2-(methylamino)ethyl]amino}methyl)-1H-pyrazol-3-yl]spiro[4.5]decan-6-ol], the EC30 in experiment [1] (setting [3]) was < 3 µM; in experiment [1] (setting [4]), 0.411 µM. Moreover, the values for the pIC50 in experiment [2] and in experiment [2] (setting [5]) were > 7.00 and 7.13, respectively.

As for `CNCCN(C)Cc1c[nH]nc1C1CCC(C)(C)C(O)C1` (stereo not shown) [Compound 185, 2,2-dimethyl-5-[4-({methyl[2-(methylamino)ethyl]amino}methyl)-1H-pyrazol-3-yl]cyclohexan-1-ol], the values for the EC30 in experiment [1] (setting [3]) and in experiment [1] (setting [4]) were < 3 µM and 0.453 µM, respectively. Besides, the results for the pIC50 in experiment [2] and in experiment [2] (setting [5]) were > 7.00 and 7.45, respectively.

With `CNCCN(C)Cc1c[nH]nc1[C@H]1CC[C@H](OCCOc2ccccc2)CC1` [Compound 187], the figures for the EC30 in experiment [1] (setting [3]) and in experiment [1] (setting [4]) were 3.01 to 12 µM and 3.16 µM, respectively. The pIC50 in experiment [2] is 6.00 to 7.00; in experiment [2] (setting [5]), 6.58.
